US20070191493A1, “Use of n-alkanols as activators of the cftr channel” (priority 2003, published 2007)
Where two headings read alike, the source gives them in different places.

Target: T1, human CFTR channel endogenously expressed in Calu-3 (Homo sapiens, UniProt P13569)
T1 construct: human pulmonary epithelial cells endogenously expressing the CFTR channel; host or cells: Calu-3 human pulmonary epithelial cells
Assay: iodide efflux in Calu-3 human bronchial epithelial cells
Type: cell-based
Conditions: for EC50: Calu-3 cells, read-out: half-effect concentration (EC50)
Protocol: The CFTR studies are also carried out on Calu-3 cells (ATCC No. HTB-55), which are human pulmonary epithelial cells endogenously expressing the CFTR channel. These cells are cultured under the same culture conditions as the CHO cells. The study of the mutated CFTR channel is carried out on JME/CF15 cells, which are epithelial cells extracted from respiratory airways of patients suffering from cystic fibrosis (homozygous ΔF508) (Jefferson et al., 1990). These cells therefore express the ΔF508 mutated CFTR channel. These cells are cultured under the same conditions as above, but the culture medium is supplemented with a hormone mixture containing: adenine (180 μM), insulin (5 μg/ml), transferrin (5 μg/ml), hydrocortisone (1.1 μM), triiodothyronine (2 nM), epinephrine (5.5 μM), epidermal growth factor (1.64 nM).
This technique makes it possible to follow the kinetics of exit of the ^125I radioactive iodide. The cells are cultured in 24-well plates with a dilution to 1/10 after passage. On the fourth day of culture, the drugs to be tested are dissolved in solution according to the desired concentration, at 37° C., in medium B, at pH 7.4, containing, in mM: 137 NaCl, 5.36 KCl, 0.8 mM MgCl2, 1.8 mM CaCl2, 5.5 glucose and 10 HEPES-NaOH. The wells are washed 4 times with 500 μl of medium B. The solution is subsequently replaced with 500 μl of loading solution containing 1 μM KI and 0.5 μCi of ^125INa/ml for 30 min. The kinetics of exit of ^125I are determined after having eliminated the loading solution and washed the wells 4 times with 500 μl of medium B. For the ^125I exit kinetics, 500 μl of medium B containing or not containing the molecules to be tested are incubated for 30 sec in the wells and recovered in a hemolysis tube, so as to be replaced with 500 μl of medium B containing or not containing the molecules to be tested. The operation is repeated every 30 s for 2 to 6 min. At the end of the efflux, the intracellular ions are extracted by adding 1 ml of trichloroacetic acid (7.5%) to the cell layer. All the samples are counted in a gamma counter (Kontron). The precipitated proteins are solubilized in 0.1N NaOH and quantified using a calorimetric test.
The tracer contained in the cell layer at the beginning of the efflux is calculated as the sum of the samples and of the extracts counted. The efflux curves are constructed by expressing the percentage of the content remaining in the cell layer (I %) with respect to time. The stimulated or nonstimulated efflux rate constants (k, min^−1) are determined by smoothing the efflux curves to a monoexponential function I %=100*exp(−kt) using a linear regression of the neperian logarithm of the data, k is used to calculate the iodide released into the medium with respect to time. The hypothesis is made that, in the presence of a stimulator, the efflux is the sum of two iodide effluxes occurring in parallel: a basal efflux and a stimulated efflux characterized, respectively, by the constants kb and ks. The total net efflux is then described by the equation It^%=100*(1−exp(−ktt)) where kt is the sum of kb and ks. Finally, ks calculated as kt−kb is used to establish a dose-response relationship for antagonists. The data is expressed as means ±SD, and the t-test is used to determine the significances. […] Y begins at the basal level and progresses to the plateau (Ymax), X is the concentration and the half-effect values (EC are calculated using GraphPad Prism v3.0 (GraphPad software)).

T1 sequence (P13569 whole entry): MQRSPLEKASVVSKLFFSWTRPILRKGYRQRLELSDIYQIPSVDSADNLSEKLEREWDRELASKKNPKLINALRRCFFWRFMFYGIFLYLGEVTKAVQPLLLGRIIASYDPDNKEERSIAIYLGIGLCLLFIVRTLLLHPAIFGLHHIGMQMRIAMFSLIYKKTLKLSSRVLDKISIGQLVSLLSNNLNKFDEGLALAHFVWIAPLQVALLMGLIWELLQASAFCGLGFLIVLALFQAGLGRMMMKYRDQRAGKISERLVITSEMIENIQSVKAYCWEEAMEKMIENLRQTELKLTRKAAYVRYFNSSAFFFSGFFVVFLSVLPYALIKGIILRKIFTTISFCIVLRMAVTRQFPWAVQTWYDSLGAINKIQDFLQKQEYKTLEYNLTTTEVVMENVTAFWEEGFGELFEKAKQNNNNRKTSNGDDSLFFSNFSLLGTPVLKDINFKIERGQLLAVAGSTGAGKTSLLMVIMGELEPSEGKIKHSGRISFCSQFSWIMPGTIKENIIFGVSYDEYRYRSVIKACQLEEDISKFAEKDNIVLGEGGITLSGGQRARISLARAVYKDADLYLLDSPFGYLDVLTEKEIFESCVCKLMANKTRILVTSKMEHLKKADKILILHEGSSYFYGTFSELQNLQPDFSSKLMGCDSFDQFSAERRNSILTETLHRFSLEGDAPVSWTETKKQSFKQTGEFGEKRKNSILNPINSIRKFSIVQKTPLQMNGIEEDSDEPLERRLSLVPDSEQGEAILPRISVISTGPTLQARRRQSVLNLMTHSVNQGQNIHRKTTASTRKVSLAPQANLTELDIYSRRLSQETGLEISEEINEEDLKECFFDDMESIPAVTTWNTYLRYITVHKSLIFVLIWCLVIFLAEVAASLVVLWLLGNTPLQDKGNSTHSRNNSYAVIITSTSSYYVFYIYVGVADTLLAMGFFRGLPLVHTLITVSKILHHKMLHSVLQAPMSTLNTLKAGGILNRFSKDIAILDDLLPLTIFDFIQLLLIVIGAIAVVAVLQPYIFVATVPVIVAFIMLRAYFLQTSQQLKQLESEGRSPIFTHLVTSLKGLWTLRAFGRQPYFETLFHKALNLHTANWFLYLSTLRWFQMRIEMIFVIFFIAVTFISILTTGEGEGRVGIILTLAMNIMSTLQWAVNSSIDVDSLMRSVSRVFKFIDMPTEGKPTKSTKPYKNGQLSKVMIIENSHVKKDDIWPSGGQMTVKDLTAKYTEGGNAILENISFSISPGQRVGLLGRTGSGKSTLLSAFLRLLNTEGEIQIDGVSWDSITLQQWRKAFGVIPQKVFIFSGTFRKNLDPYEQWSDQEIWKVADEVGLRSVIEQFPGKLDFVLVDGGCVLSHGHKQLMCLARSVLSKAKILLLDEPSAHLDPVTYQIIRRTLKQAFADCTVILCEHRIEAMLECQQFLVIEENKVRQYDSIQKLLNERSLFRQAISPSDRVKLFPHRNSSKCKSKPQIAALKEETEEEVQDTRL

EC50 (in the absence of FSK): 1140 µM | EC50 (in the presence of FSK (1 μM)): 512 µM | activation of iodide efflux in Calu-3 cells, in words (octan-1-ol 0.1 to 10 mM, FSK 1 μM): activates the exit of iodide
SMILES: CCCCCCCCO [octan-1-ol]
